Source: patent US6362328B1, “Assays and probes with enzyme labels” (London Biotechnology Limited, priority 1996, dated 2002)

What was measured:
[1] = tested on: endogenous "FADPase" in the apoglucose oxidase; assay: Effect of p-nitrophenyl phosphate on background color generation in the absence of nuclease P1; assay type: biochemical; conditions: p-nitrophenyl phosphate at concentrations up to approximately 5 mM; no nuclease P1; FIG. 3
Method: (§1) The effect of the added p-nitrophenyl phosphate on the background color generation in the absence of nuclease P1 was also noted. This background is due to endogenous “FADPase” in the apoglucose oxidase used in the assay. At concentrations up to approximately 5 mM, added p-nitrophenyl phosphate has no effect on nuclease P1, but reduces the background signal by 80-100% (FIG. 3).

nuclease P1 [2] = biological target: T1, nuclease P1 (Penicillium citrinum, UniProt P24289); assay: Effect of p-nitrophenyl phosphate on the activity of nuclease P1; assay type: biochemical; design: purchased Sigma Chemical Company; conditions: p-nitrophenyl phosphate at concentrations up to approximately 5 mM; FIG. 3
T1 sequence (P24289 1-270): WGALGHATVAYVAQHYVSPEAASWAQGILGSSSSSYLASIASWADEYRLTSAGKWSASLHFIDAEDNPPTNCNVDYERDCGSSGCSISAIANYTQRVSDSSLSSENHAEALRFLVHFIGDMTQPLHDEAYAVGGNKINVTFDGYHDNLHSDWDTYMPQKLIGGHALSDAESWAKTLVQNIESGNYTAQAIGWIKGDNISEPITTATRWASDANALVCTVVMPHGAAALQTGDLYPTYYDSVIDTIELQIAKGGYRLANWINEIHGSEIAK
Method: as §1

nuclease P1 [3] = biological target: T1, nuclease P1; conditions: phosphate 0 to 10 mM; nuclease P1 at pH 6.5, alkaline phosphatase at pH 8.9; FIG. 2
Method: A solution of nuclease P1 standardized according to Example 1 was serially diluted in 50 mM citrate buffer adjusted to pH 6.5 with NaOH. The assay mixture contained 20 μM 3′FADP, 0.1 mM 4-aminoantipyrine, 2 mM DHSA, 1 μg horseradish peroxidase, 0.1 M glucose and 0.1 μM apoglucose oxidase in a total volume of 0.1 ml. The change in absorbance was monitored at 520 nm in a Dynatech MR7000 plate reader fitted with a thermostatically controlled plate holder set to 25° C.

[4] = Standardization of nuclease P1 (coupled NADH assay, absorbance at 340 nm); assay type: biochemical; conditions: 22.7 μM solution (1 mg in 1 ml water); 50 mM HEPES pH 7.2; molar extinction coefficient of 6220 for NADH assumed
Method: Nuclease P1 (1 mg; obtained from Sigma Chemical Company, batch no: 107F0799) was dissolved in 1 ml of water to give a concentration of 22.7 μM and stored at 4° C. The activity of this solution was assayed in the following mixture: 0.16 mM NADH, 1 mM ATP, 1 mM PEP, 1 mM MgSO4, 20 mM KCl, 0.5 mM adenosine 3′,5′-bisphosphate, 1 U pyruvate kinase, 1 U lactate dehydrogenase and 1 U myokinase in 50 mM HEPES buffer, pH 7.2, in a total volume of 1 ml.

O=[N+]([O-])c1ccc(OP(=O)(O)O)cc1 [p-nitrophenyl phosphate]
reduction of background signal [1]: 80-100% | effect on nuclease P1 activity (nuclease P1 [2]): no effect

phosphate
effect of phosphate on enzyme activity (nuclease P1 [3]): less of an effect on nuclease P1 than on alkaline phosphatase

B1: Nuclease P1: enzyme obtained from Sigma Chemical Company, used as enzyme label (protein, UniProt P24289 1-270, looked up)
Nuclease P1: T1 sequence (P24289 1-270)
activity of nuclease P1 solution [4]: 320 U/ml
